Assay results reported in publication PMC11048155, “Antiviral Drug Candidate Repositioning for Streptococcus suis Infection in Non-Tumorigenic Cell Models” (Biomedicines, 2024).
In brackets after ≈: the same amount, converted by molar mass. Entries after “also recorded” stand apart in the source; their conditions may differ.

Columns and labels:
[1] = target: CYP3A4 (Homo sapiens, UniProt P08684); assay: CYP enzyme fluorometric activity measurement, human hepatic microsomes; conditions: human microsomal preparations, 15 min, 37 °C, p < 0.0001
Experimental: (§1) The Biovision CYP assays (BioVision, Inc., Kampenhout, Belgium) employ non-fluorescent CYP2D6, 2C9, 2C19, 1A2, or 3A4 substrates able to undergo transformation into highly fluorescent detectable metabolites. […] Human hepatic microsomal supernatants were prepared (Gibco, Biocentre, Szeged, Hungary protein concentration: 20 mg/mL) separately by mixing 30 µL with 2425 µL assay buffer and with 50 µL nicotinamide adenine dinucleotide phosphate (NADPH) generating system (100×). […] Control measurements were performed in the absence of the inhibitors.
(§2) In background controls, only assay buffer excluding microsomes and test compounds was used in a volume of 70 µL. Subsequently, after incubation at 37 °C for 15 min, 30 µL of the suitable CYP substrate/NADP+ mixture was incorporated into each well, resulting in a final reaction volume of 100 µL/well. The obtained microsomal protein content was assessed using the bicinchoninic acid protein assay kit (Pierce BCA kit, Thermo Fisher Scientific, Waltham, MA, USA). In each assay, the microsomal protein concentration was calibrated to 100 µg/well. The fluorescence intensities were measured with a fluorometer (Victor X2 2030, Perkin Elmer, Waltham, MA, USA) using λex/em = 406/468 nm for CYP1A2 and for CYP2C19, λex/em = 415/502 nm for CYP2C9, λex/em = 390/468 nm for CYP2D6, and λex/em = 535/587 nm for CYP3A4 assays.

[2] = target: T1, CYP1A2 (Homo sapiens, UniProt P05177); assay: as above; conditions: inhibitor 50 µM, human microsomes, 15 min; p > 0.05
T1 sequence (P05177 1-516): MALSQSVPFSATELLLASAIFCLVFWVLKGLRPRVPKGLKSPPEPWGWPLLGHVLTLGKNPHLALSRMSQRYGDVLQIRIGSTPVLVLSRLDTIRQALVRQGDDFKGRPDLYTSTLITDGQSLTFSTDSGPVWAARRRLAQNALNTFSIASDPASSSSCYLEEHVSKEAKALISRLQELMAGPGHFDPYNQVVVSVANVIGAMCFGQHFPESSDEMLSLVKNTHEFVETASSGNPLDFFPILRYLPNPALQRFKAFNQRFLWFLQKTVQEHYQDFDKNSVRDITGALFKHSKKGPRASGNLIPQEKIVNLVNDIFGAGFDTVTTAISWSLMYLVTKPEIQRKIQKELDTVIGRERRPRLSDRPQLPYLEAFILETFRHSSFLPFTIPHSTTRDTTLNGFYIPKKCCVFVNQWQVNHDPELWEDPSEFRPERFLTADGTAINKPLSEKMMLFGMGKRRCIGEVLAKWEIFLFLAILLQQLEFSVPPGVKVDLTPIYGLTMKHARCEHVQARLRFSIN
Experimental: as §1, §2

[3] = test system: S. suis serotype 2; assay: MIC measurement (broth microdilution); format: cell-based, Streptococcus suis; conditions: source 672/22, 18–24 h at 37 °C
[4] = test system: porcine hepatocytes; assay: IL-6 production, porcine IL-6 ELISA; format: cell-based; conditions: S. suis 10^4 CFU/mL in combination with inhibitor, 24 h
Experimental: (§3) After 24 h incubation time, the cell-free supernatants from […], MI-471, and MI-476 exposure were sampled from IPEC-J2 cells and from porcine hepatocytes. The changes in cytokine levels were detected with porcine IL-6 ELISA kits. The manufacturer’s instructions were followed to treat the supernatants and measured by a SpectraMax iD3 microplate reader at 450 nm.

[5] = test system: IPEC-J2 cells; assay: IL-6 production, porcine IL-6 ELISA; format: cell-based; conditions: IPEC-J2, S. suis 10^4 CFU/mL in combination with inhibitor, 24 h
Experimental: as §3

[6] = test system: Enterococcus (E.) faecalis (clinical isolate); assay: MIC measurement (broth microdilution); format: cell-based; conditions: Enterococcus; E. fecalis, source 442; 18–24 h at 37 °C; read-out: MIC
[7] = target: T2, CYP2C19 (Homo sapiens, UniProt P33261); assay: CYP enzyme fluorometric activity measurement, human hepatic microsomes; format: in vitro ADME; conditions: inhibitor 50 µM, 15 min, p > 0.05
T2 construct: Human hepatic microsomal supernatants were prepared; tissue Gibco; host or cells: human liver microsomes

[8] = test system: Pasteurella (P.) multocida (clinical isolate); assay: MIC measurement (broth microdilution); format: cell-based; conditions: source 380/22, 18–24 h at 37 °C
[9] = test system: Burkholderia (B.) cepacia (clinical isolate); assay: MIC measurement (broth microdilution); format: cell-based; conditions: B. cepacia, source 20-10299; 18–24 h at 37 °C; read-out: MIC
[10] = test system: IPEC-J2 cells; assay: Cell viability, Neutral red assay; format: cell-based, porcine; conditions: IPEC-J2, S. suis 10^4 CFU/mL in combination with inhibitor 50 µM, 24 h
Excerpt: The IPEC-J2 cell line is unique as it is non-transformed and non-tumorigenic. IPEC-J2 cells are derived from intestinal enterocytes extracted from the jejunum of neonatal unsuckled piglets. IPEC-J2 cells were gifted by Dr. Jody Gookin (Department of Clinical Sciences, College of Veterinary Medicine, North Carolina State University, Raleigh, NC, USA). […] The cells had undergone passage around 50 times. […] This experiment included plain DMEM/F12 medium as a control. At the end of the final treatments (24 h), the ratio of viable cells was measured by absorbance at 540 nm wavelength with a SpectraMax iD3 microplate reader.

[11] = test system: IPEC-J2 cells; assay: EC H2O2 production, Amplex red method; format: cell-based, porcine; conditions: 24 h
Experimental: For oxidative status measurements, inhibitors MI-432, MI-471, or MI-476 were used at 50 µM in the absence and presence of S. suis for 24 h in IPEC-J2 cells and in primary porcine hepatocytes on 24-well plates. An Amplex red hydrogen peroxide assay kit was used to monitor EC hydrogen peroxide (H₂O₂) production in IPEC-J2 cells and in hepatocytes. Following the manufacturer’s instructions, cell-free supernatants were collected and mixed with the Amplex red working solution (in a ratio of 1:1). A Victor X2 2030 fluorometer was used to detect fluorescence intensity at wavelengths 530 nm and 590 nm for excitation and emission, respectively.

[12] = IPEC-J2, S. suis 10^4 CFU/mL in combination with inhibitor 50 µM

CYP3A4, sequence (P08684 whole entry): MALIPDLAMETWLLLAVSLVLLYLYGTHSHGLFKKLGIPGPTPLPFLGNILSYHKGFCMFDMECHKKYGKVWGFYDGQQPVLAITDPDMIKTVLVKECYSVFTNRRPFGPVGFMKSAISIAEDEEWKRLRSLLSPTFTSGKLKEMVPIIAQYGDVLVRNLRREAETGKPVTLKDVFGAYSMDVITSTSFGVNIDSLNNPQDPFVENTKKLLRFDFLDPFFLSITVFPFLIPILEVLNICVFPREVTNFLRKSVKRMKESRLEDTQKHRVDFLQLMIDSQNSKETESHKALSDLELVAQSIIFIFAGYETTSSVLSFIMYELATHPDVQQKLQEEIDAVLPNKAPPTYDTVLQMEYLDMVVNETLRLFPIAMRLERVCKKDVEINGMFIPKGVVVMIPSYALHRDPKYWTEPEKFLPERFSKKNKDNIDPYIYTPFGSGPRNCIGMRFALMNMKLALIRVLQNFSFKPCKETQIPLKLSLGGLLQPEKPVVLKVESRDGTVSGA
T2 sequence (P33261 whole entry): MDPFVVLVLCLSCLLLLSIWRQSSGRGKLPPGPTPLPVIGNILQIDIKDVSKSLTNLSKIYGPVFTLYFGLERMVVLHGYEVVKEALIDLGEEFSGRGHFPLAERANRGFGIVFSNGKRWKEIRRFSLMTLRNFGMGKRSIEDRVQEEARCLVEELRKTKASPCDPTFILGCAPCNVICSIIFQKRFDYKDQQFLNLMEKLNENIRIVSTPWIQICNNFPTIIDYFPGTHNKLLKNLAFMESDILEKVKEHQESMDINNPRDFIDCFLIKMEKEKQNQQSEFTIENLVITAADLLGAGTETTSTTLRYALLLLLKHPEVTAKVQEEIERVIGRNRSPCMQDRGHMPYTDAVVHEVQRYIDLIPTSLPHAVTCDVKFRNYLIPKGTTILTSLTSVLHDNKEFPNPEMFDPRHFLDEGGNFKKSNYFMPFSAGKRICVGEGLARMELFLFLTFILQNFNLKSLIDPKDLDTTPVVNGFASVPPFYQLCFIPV

| Structure (SMILES) | CYP3A4 isoenzyme activity ([1]; inhibitor 10 µM) | CYP3A4 isoenzyme activity ([1]; inhibitor 25 µM) | CYP3A4 isoenzyme activity ([1]; inhibitor 50 µM) | CYP1A2 activity [2] | MIC ([3]; Streptococcus suis) [µM] | MIC [3] [µM] | IL-6 levels [4] | IL-6 levels [5] | MIC [6] [µM] | CYP2C19 activity [7] | MIC [8] [µM] | MIC [9] [µM] | cell viability [10] | EC H2O2 production [11, 12] | EC H2O2 production ([11]; IPEC-J2, inhibitor alone 50 µM) |
| --- | --- | --- | --- | --- | --- | --- | --- | --- | --- | --- | --- | --- | --- | --- | --- |
| N=C(N)c1cccc(C[C@H](NS(=O)(=O)c2cccc(-c3ccc(Cl)cc3Cl)c2)C(=O)N2CCC(CN)CC2)c1 [MI-476] | mitigated | mitigated | mitigated | No significant inhibitory effects | 6 (≈ 3.53 µg/mL) | 6.25 (≈ 3.68 µg/mL) | significant anti-inflammatory effects | significant anti-inflammatory effects | > 800 | No significant inhibitory effects | 50 (≈ 29.4 µg/mL) | 400 (≈ 235 µg/mL) | did not show any negative effect on cell viability; also recorded: effectively suppressed | unchanged H₂O₂ production; also recorded: antioxidant properties | unchanged H₂O₂ production |
| N=C(N)c1cccc(C[C@H](NS(=O)(=O)c2cccc(-c3ccc(Cl)cc3Cl)c2)C(=O)N2CCC(N)CC2)c1 [MI-471] | mitigated | mitigated | mitigated | No significant inhibitory effects | 3 (≈ 1.72 µg/mL) | 3.125 (≈ 1.8 µg/mL) | significant anti-inflammatory effects | significant anti-inflammatory effects | > 800 | No significant inhibitory effects | 50 (≈ 28.7 µg/mL) | 400 (≈ 230 µg/mL) | did not show any negative effect on cell viability; also recorded: effectively suppressed | significant increase; also recorded: significant elevation in H2O2 levels | unchanged H₂O₂ production |
